# Data taken from US9828379B2 (priority 2013, dated 2017).
# Key:
# FAAH [1] = target: T1, FAAH (Mus musculus, UniProt O08914); experiment: biochemical; settings: in vitro competitive ABPP
# T1 sequence (O08914 1-579): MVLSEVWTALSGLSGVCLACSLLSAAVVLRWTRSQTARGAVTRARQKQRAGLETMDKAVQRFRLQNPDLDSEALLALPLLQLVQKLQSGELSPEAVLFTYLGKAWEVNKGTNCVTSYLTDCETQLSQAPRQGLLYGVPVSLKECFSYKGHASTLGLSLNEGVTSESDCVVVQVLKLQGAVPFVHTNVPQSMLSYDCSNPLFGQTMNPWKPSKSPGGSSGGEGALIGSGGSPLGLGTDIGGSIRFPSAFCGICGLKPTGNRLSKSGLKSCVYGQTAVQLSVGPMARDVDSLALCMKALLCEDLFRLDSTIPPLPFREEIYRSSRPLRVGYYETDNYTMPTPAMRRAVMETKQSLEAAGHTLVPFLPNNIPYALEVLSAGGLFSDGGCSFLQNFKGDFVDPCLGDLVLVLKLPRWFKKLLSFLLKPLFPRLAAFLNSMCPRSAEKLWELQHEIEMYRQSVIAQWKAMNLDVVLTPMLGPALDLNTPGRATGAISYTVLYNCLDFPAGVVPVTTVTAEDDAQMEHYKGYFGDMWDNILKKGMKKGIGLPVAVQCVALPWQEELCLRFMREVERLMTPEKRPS
# MAGL [2] = target: T2, MAGL (Mus musculus, UniProt O35678); experiment: biochemical; settings: mouse; in vitro competitive ABPP; read-out: Mouse (IC50 value, nM) MAGL
# T2 sequence (O35678 1-303): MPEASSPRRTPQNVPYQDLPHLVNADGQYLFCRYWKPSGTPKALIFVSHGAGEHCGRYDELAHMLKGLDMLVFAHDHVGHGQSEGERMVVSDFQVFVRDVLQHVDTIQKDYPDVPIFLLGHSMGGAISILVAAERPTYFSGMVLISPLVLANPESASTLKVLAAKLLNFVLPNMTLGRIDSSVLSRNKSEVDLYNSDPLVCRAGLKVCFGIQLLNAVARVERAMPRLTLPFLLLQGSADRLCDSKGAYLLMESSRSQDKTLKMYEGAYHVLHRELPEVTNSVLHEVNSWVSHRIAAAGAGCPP
# ABHD6 [3] = target: T3, ABHD6 (Mus musculus, UniProt Q8R2Y0); experiment: biochemical; settings: in vitro competitive ABPP
# T3 sequence (Q8R2Y0 1-336): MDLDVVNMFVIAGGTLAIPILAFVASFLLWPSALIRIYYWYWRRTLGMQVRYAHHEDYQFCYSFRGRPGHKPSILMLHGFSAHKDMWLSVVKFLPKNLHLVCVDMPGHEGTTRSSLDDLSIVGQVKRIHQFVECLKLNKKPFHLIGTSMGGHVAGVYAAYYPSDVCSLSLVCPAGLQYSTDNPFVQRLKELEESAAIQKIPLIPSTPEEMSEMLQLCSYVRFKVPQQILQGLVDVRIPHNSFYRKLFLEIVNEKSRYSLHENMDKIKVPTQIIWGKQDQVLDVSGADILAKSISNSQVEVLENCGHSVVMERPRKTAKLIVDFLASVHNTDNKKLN
# ABHD6 [4] = target: T3, ABHD6; experiment: In vitro competitive activity-based protein profiling (Table 2, % inhibition at 1 μM); type: biochemical; settings: read-out: % Inhibition at 1 μM ABHD6
# FAAH [5] = target: T1, FAAH; experiment: as above; type: biochemical; settings: read-out: % Inhibition at 1 μM FAAH
# MAGL [6] = target: T2, MAGL; experiment: as above; type: biochemical; settings: read-out: % Inhibition at 1 μM MAGL
# Protocol: After 30 min, FP—Rh (1.0 μL, 50 μM in DMSO) was added and the mixture was incubated for another 30 min at 37° C. Reactions were quenched with SDS loading buffer (50 μL-4×) and run on SDS-PAGE.
# Cell lysates were diluted with mock proteomes for use in competitive ABPP experiments.
Structure (SMILES),IC50 (FAAH [1]),IC50 (MAGL [2]),IC50 (ABHD6 [3]),inhibition at 1 µM (ABHD6 [4]),inhibition at 1 µM (FAAH [5]),inhibition at 1 µM (MAGL [6])
"Cc1c(CN2CC3CN(C(=O)OC(C(F)(F)F)C(F)(F)F)CC3C2)cccc1N1CCC2(CCOC2)C1 (stereo not drawn) [Example 46, 1,1,1,3,3,3-Hexafluoropropan-2-yl 5-[(2-methyl-3-[2-oxa-7-azaspiro[4.4]nonan-7-yl]phenyl)methyl]-octahydropyrrolo[3,4-c]pyrrole-2-carboxylate]",1000 to 10000 nM,< 100 nM,1000 to 10000 nM,< 25%,25 to 75%,> 75%
"CC(=O)NC1CCN(c2cccc(CN3CC4CN(C(=O)OC(C(F)(F)F)C(F)(F)F)CC4C3)c2C)CC1 (stereo not drawn) [Example 151, 1,1,1,3,3,3-hexafluoropropan-2-yl 5-[[3-(4-acetamidopiperidin-1-yl)-2-methylphenyl]methyl]-octahydropyrrolo[3,4-c]pyrrole-2-carboxylate]",1000 to 10000 nM,< 100 nM,1000 to 10000 nM,25 to 75%,< 25%,> 75%
"CCn1ncc(CN2CC3CN(C(=O)OC(C(F)(F)F)C(F)(F)F)CC3C2)c1C(=O)NCC1CCOCC1 (stereo not drawn) [Example 181, 1,1,1,3,3,3-hexafluoropropan-2-yl 5-((1-ethyl-5-(((tetrahydro-2H-pyran-4-yl)methyl)carbamoyl)-1H-pyrazol-4-yl)methyl)hexahydropyrrolo[3,4-c]pyrrole-2(1H)-carboxylate]",> 10000 nM,< 100 nM,100 to 1000 nM,25 to 75%,< 25%,> 75%
"O=C(ON1C(=O)CCC1=O)N1CC2CN(Cc3ccc(N4CCOCC4)cc3C(F)(F)F)CC2C1 (stereo not drawn) [Example 85, 2,5-Dioxopyrrolidin-1-yl 5-[[4-(morpholin-4-yl)-2-(trifluoromethyl)phenyl]methyl]-octahydropyrrolo[3,4-c]pyrrole-2-carboxylate]",100 to 1000 nM,100 to 1000 nM,1000 to 10000 nM,< 25%,25 to 75%,> 75%
"O=C(ON1C(=O)CCC1=O)N1CC2CN(Cc3cccc(-c4ccccc4)c3)CC2C1 (stereo not drawn) [Example 88, 2,5-Dioxopyrrolidin-1-yl 5-[(3-phenylphenyl)methyl]-octahydropyrrolo[3,4-c]pyrrole-2-carboxylate]",100 to 1000 nM,< 100 nM,1000 to 10000 nM,25 to 75%,> 75%,> 75%
"O=C(OC(C(F)(F)F)C(F)(F)F)N1CC2CN(Cc3ccc(Cl)cc3N3CCn4ncnc4C3)CC2C1 (stereo not drawn) [Example 34, 1,1,1,3,3,3-Hexafluoropropan-2-yl 5-(4-chloro-2-(5,6-dihydro-[1,2,4]triazolo[1,5-a]pyrazin-7(8H)-yl)benzyl)-hexahydropyrrolo[3,4-c]pyrrole-2(1H)-carboxylate]",1000 to 10000 nM,< 100 nM,100 to 1000 nM,25 to 75%,25 to 75%,> 75%
"O=C(OC(C(F)(F)F)C(F)(F)F)N1CC2CN(Cc3cc(CN4CCOCC4)cc(OC(F)(F)F)c3)CC2C1 (stereo not drawn) [Example 183, 1,1,1,3,3,3-hexafluoropropan-2-yl 5-(3-(morpholinomethyl)-5-(trifluoromethoxy)benzyl)hexahydropyrrolo[3,4-c]pyrrole-2(1H)-carboxylate]",1000 to 10000 nM,100 to 1000 nM,1000 to 10000 nM,< 25%,< 25%,> 75%
"Cc1c(CN2CC3CN(C(=O)OC(C(F)(F)F)C(F)(F)F)CC3C2)cccc1C(=O)N1CCCCC1 (stereo not drawn) [Example 187, 1,1,1,3,3,3-hexafluoropropan-2-yl 5-(2-methyl-3-(piperidine-1-carbonyl)benzyl)hexahydropyrrolo[3,4-c]pyrrole-2(1H)-carboxylate]",1000 to 10000 nM,< 100 nM,1000 to 10000 nM,25 to 75%,< 25%,> 75%
"O=C(OC(C(F)(F)F)C(F)(F)F)N1CC2CN(Cc3cccc(-c4ccccc4)c3)CC2C1 (stereo not drawn) [Example 13, 1,1,1,3,3,3-Hexafluoropropan-2-yl 5-[(3-phenylphenyl)methyl]-octahydropyrrolo[3,4-c]pyrrole-2-carboxylate]",100 to 1000 nM,< 100 nM,1000 to 10000 nM,< 25%,25 to 75%,> 75%
"O=C(OC(C(F)(F)F)C(F)(F)F)N1CC2CN(Cc3ccc(C(=O)N4CCCC4)c(OC(F)(F)F)c3)CC2C1 (stereo not drawn) [Example 193, 1,1,1,3,3,3-hexafluoropropan-2-yl 5-(4-(pyrrolidine-1-carbonyl)-3-(trifluoromethoxy)benzyl)hexahydropyrrolo[3,4-c]pyrrole-2(1H)-carboxylate]",> 10000 nM,100 to 1000 nM,1000 to 10000 nM,25 to 75%,< 25%,> 75%
"O=C(OC(C(F)(F)F)C(F)(F)F)N1CC2CN(Cc3cccc(Cl)c3N3CCOCC3)CC2C1 (stereo not drawn) [Example 44, 1,1,1,3,3,3-Hexafluoropropan-2-yl 5-[[3-chloro-2-(morpholin-4-yl)phenyl]methyl]-octahydropyrrolo[3,4-c]pyrrole-2-carboxylate]",1000 to 10000 nM,< 100 nM,1000 to 10000 nM,< 25%,< 25%,> 75%
"CC(=O)N1CCC(c2nn(C(C)C)cc2CN2CC3CN(C(=O)OC(C(F)(F)F)C(F)(F)F)CC3C2)CC1 (stereo not drawn) [Example 55, 1,1,1,3,3,3-Hexafluoropropan-2-yl 5-[[3-(1-acetylpiperidin-4-yl)-1-(propan-2-yl)-1H-pyrazol-4-yl]methyl]-octahydropyrrolo[3,4-c]pyrrole-2-carboxylate]",> 10000 nM,100 to 1000 nM,1000 to 10000 nM,< 25%,< 25%,> 75%
"Cc1c(CN2CC3CN(C(=O)OC(C(F)(F)F)C(F)(F)F)CC3C2)cccc1N1CCC(NS(C)(=O)=O)CC1 (stereo not drawn) [Example 149, 1,1,1,3,3,3-hexafluoropropan-2-yl 5-[[3-(4-methanesulfonamidopiperidin-1-yl)-2-methylphenyl]methyl]-octahydropyrrolo[3,4-c]pyrrole-2-carboxylate]",1000 to 10000 nM,< 100 nM,1000 to 10000 nM,< 25%,25 to 75%,> 75%
"O=C(OC(C(F)(F)F)C(F)(F)F)N1CC2CN(Cc3cccc(N4CCC5(CCOC5)C4)c3Cl)CC2C1 (stereo not drawn) [Example 48, 1,1,1,3,3,3-Hexafluoropropan-2-yl 5-[(2-chloro-3-[2-oxa-7-azaspiro[4.4]nonan-7-yl]phenyl)methyl]-octahydropyrrolo[3,4-c]pyrrole-2-carboxylate]",1000 to 10000 nM,< 100 nM,1000 to 10000 nM,< 25%,25 to 75%,> 75%
"O=C(OC(C(F)(F)F)C(F)(F)F)N1CC2CN(Cc3ccc(C(F)(F)F)cc3N3CC4COCC4C3)CC2C1 (stereo not drawn) [Example 210, 1,1,1,3,3,3-hexafluoropropan-2-yl 5-(2-(tetrahydro-1H-furo[3,4-c]pyrrol-5(3H)-yl)-4-(trifluoromethyl)benzyl)hexahydropyrrolo[3,4-c]pyrrole-2(1H)-carboxylate]",1000 to 10000 nM,< 100 nM,1000 to 10000 nM,< 25%,< 25%,> 75%
